Experimental data taken from patent US6593369B2, “Methods, compositions, and kits for enhancing female sexual desire and responsiveness” (Vivus, Inc., priority 1997, dated 2003).
Values after ≈ are worked out from the molar mass of the structure shown.

Tests used:
[1] = Chemical stability of prostaglandin preparations; type: physicochemical; settings: composition containing a citrate salt or tocopherol
clitoral artery = experiment: Measurement of clitoral blood flow by ultrasound (Doppler velocitometer); type: in vivo, human; settings: Patient No. 1; for Change in Clitoral Blood Flow: peak systolic flow vs baseline; for Change in Clitoral Blood Flow, percent in brackets: vs baseline
Description: 1. Measurement of clitoral blood flow by ultrasound:
Clitoral blood flow was estimated by utilizing the Knoll-Midas ultrasonic Doppler velocitometer (Urometrics, Inc.). The ultrasound probe was manually positioned over the middle of the clitoral body as it courses superficially through the perineum between the external vaginal opening and the end of the clitoris (glans clitoris). […] This method is analogous to that used in measuring the cavernosal artery velocity in the penis. The clitoral artery was easily visualized. Measurements were made at baseline and at various time intervals following the application of a drug to the clitoris. Peak systolic blood flow at baseline was compared to peak systolic blood flow following drug administration as a method of comparing relative efficacy in inducing clitoral artery vasodilatation in a manner analogous to studies of such drugs in men.
(§1) 1. Solutions of prostaglandin E-1 and E-2 were prepared by dissolving weighed amounts of the prostaglandin in triacetin to produce a concentrated stock solution. Serial dilutions of this stock solution were made by a micropipette. Since triacetin can partially hydrolyze on standing to produce traces of acetic acid, the triacetin was treated with a small amount of a concentration potassium bicarbonate solution to remove any acetic acid, then dried with magnesium sulfate and filtered to give a triacetin free of acid or water. Solutions were used the same day that they were made. Concentrations of prostaglandin varied from 2.0-1,000 micrograms per milliliter of triacetin. Following equilibration of clitoral temperature, a dose of triacetin was applied to the clitoris prior to active drug solutions to determine the effect of the carrier on the clitoris.
(§2) Solutions were applied directly to the clitoris by means of a calibrated micropipette (Justor 1100DG, Sigma; St. Louis, Mo.).

clitoris [2] = experiment: Subjective examples: composition applied directly to the clitoris of female subjects; type: in vivo, human
Description: The clitoris is often retracted or hidden under the clitoral hood. Thus, prior to administration of the present composition, the clitoral hood should be retracted with the finger of one hand, and the clitoral hood should be held back as the dose is applied. IV. Subjective Examples

clitoris [3] = experiment: Measurement of clitoral skin temperature after topical application to the clitoris; type: in vivo, human
Description: 2. Measurement of clitoral skin temperature:
A highly sensitive thermocouple capable of determining changes in skin temperature of 0.002 degrees Fahrenheit was connected to a computer-based recording device (F1000 by Focused Technology, Inc.) and used to measure changes in clitoral skin temperature. The patient changed from their clothes into a gown and was placed in a semi-reclining position in a comfortable recliner. Room temperature was controlled at 76 degrees F. (±1) and no air drafts were present. The thermocouple was coated with a small amount of lubricating jelly and placed in a labial skin fold adjacent to the clitoris. A period of equilibration (˜15 minutes) allowed the measured temperature to stabilize. Next, precise doses of various pharmaceuticals were applied as solutions directly to the clitoris by a calibrated micropipette (Justor 1100DG, Sigma; St. Louis, Mo.). Typical volumes used were 20-50 microliters. Clitoral temperatures were continually measured and printed for analysis. Increases in skin temperature directly correlate with changes in cutaneous blood flow. See Birnbaum (U.S. Pat. No. 4,311,707) for an example of using this method to compare the relative vasodilatory potency of topical prostaglandins. Changes in skin temperature are reported as maximum recorded temperature in an interval minus the temperature at the end of the equilibration period. The magnitudes of these recorded temperature changes may be used as a measurement of the change in clitoral blood flow.
as §1
(§3) 2. R-alphamethylhistamine hydrochloride is not soluble in triacetin but is soluble in saline. Normal saline +2 millimolar potassium phosphate at pH 7.4 was used to prepare solutions of R-alphamethylhistamine hydrochloride with concentrations from 2.5-100 micrograms per milliliter of saline.
as §2

clitoris [4] = experiment: Patient subjective reports of sexual arousal and symptoms after application to the clitoris; type: in vivo, human
Protocol: 3. Patient Subjective Reports:
Patient reports of symptoms and effects of agents on sexual arousal measures (such as warmth and tingling, vaginal lubrication and excitation) were recorded. Blood pressure and pulse were also recorded. Different drugs were given on different days. Some series of drug titrations were recorded on several days.
as §1, §3, §2

Solubility in water = type: physicochemical
Protocol: 5 mg of PGE-2 is added to sterile cold water (10 ml, 1 mM in sodium citrate), stirred until dissolved and the pH adjusted with either NaOH or HCl, to a pH of about 5.4.

[5] = Example 2, 50 μg with 150 μg phentolamine hydrochloride
[6] = Example 6, 300 μg liposomal mixture after 50 mg naltrexone HCl 2 hours before, person, anorgasmia secondary to paroxetine
[7] = Patient No. 1, 0.020 mcg in triacetin on clitoris
[8] = Patient No. 1, 0.200 mcg in triacetin on clitoris
[9] = Patient No. 1, 0.400 mcg in triacetin on clitoris
[10] = Patient No. 1, 1.000 mcg in triacetin on clitoris
[11] = Patient No. 1, 10.0 mcg in triacetin on clitoris
[12] = Patient No. 1, 50.0 mcg in triacetin on clitoris
[13] = Patient No. 2, 1.000 mcg in triacetin on clitoris
[14] = Patient No. 2, 10.0 mcg in triacetin on clitoris
[15] = Patient No. 1, 1.0 mcg in saline on clitoris
[16] = Patient No. 1, 10.0 mcg in saline on clitoris
[17] = Patient No. 1, 100.0 mcg in saline on clitoris
[18] = Patient No. 1, 20.0 mcg in triacetin on clitoris
[19] = Patient No. 1, 200.0 mcg in triacetin on clitoris
[20] = Patient No. 2, 100.0 mcg in triacetin on clitoris

CCCCC[C@H](O)/C=C/[C@H]1[C@H](O)CC(=O)[C@@H]1C/C=C\CCCC(=O)O [PGE-2, 7-[3-hydroxy-2-(3-hydroxy-1-octenyl)-5-oxocyclopentyl]-5-heptenoic acid]
Stability in composition [1]: especially stabile
Change in Clitoral Blood Flow (clitoral artery; 0.020 mcg in triacetin): 0 cm/s
Change in Clitoral Blood Flow (clitoral artery; 0.200 mcg in triacetin): 11 cm/s
Change in Clitoral Blood Flow, percent in brackets (clitoral artery; 0.200 mcg in triacetin): +50%
Change in Clitoral Blood Flow (clitoral artery; 0.400 mcg in triacetin): 12 cm/s
Change in Clitoral Blood Flow, percent in brackets (clitoral artery; 0.400 mcg in triacetin): +92%
Change in Clitoral Blood Flow (clitoral artery; 1.000 mcg in triacetin): 10 cm/s
Change in Clitoral Blood Flow, percent in brackets (clitoral artery; 1.000 mcg in triacetin): +77%
Change in Clitoral Blood Flow (clitoral artery; 10.0 mcg in triacetin): 10 cm/s
Change in Clitoral Blood Flow, percent in brackets (clitoral artery; 10.0 mcg in triacetin): +100%
Change in Clitoral Blood Flow (clitoral artery; 50.0 mcg in triacetin): 2 cm/s
Change in Clitoral Blood Flow, percent in brackets (clitoral artery; 50.0 mcg in triacetin): +20%
Dose resulting in an increase in clitoral blood flow (clitoral artery; triacetin solution with palmitic acid (PGDH inhibitor) and PGE2 in 10:1 weight ratio): 0.4 nanograms
Sexual response after application (clitoris [2]; Example 1A, 20 μg with 150 μg phentolamine hydrochloride and 3 mg papaverine hydrochloride in liposomal solution, person, no sexual dysfunction): the clitoris became engorged and vaginal lubrication was noted
Sexual response after application (clitoris [2]; Example 1B, 125 μg with 125 μg phentolamine, aqueous solution, 2 drops, same person): essentially the same response as in part A
Sexual response after application (clitoris [2]; Example 1C, 125 μg alone in aqueous saline, 3 drops, same person): the same response described in part A but with reduced intensity
Duration of clitoral enlargement and sexual excitement (clitoris [2]; [5]): gone within one hour after application of the composition
Time at which stimulation peaked after application (clitoris [2]; [5]): around 15 minutes
Sexual response after application (clitoris [2]; Example 2, 50 μg with 150 μg phentolamine hydrochloride, aqueous solution, person, no sexual dysfunction): warm tingling sexual feelings in their clitoris within one minute
Response to repeat dosing (clitoris [2]; Example 2, repeat dose one and a half hours after the first dose): gave the same response as the first dose
Intensity of response rated by subject (clitoris [2]; Example 2, scale of one (1) to ten (10), ten highest, 50 μg with 150 μg phentolamine hydrochloride): 8
Sexual response after application (clitoris [2]; Example 5, 150 μg in liposomal solution, three drops, person with decreased sexual responsiveness): greatly increased their sexual desire and responsiveness
Sexual response after application (clitoris [2]; [6]): had the best sexual experience of their life
Time to tingling sexual feelings spreading over body (clitoris [2]; [6]): ≤ 1 min
Temperature Change (clitoris [3]; [7]): 2.1 ° F.
Potency relative to PGE-1 (clitoral temperature increase) (clitoris [3]; Patient No. 1, 0.200 mcg PGE-2 about equal to 100 mcg PGE-1): about 500 times
Temperature Change (clitoris [3]; [8]): 2.4 ° F.
Temperature Change (clitoris [3]; [9]): 4.5 ° F.
Temperature Change (clitoris [3]; [10]): 2.3 ° F.
Temperature Change (clitoris [3]; [11]): 4.8 ° F.
Temperature Change (clitoris [3]; [12]): 2.0 ° F.
Temperature Change (clitoris [3]; Patient No. 2, 0.050 mcg in triacetin on clitoris): 1.8 ° F.
Temperature Change (clitoris [3]; [13]): 2.4 ° F.
Temperature Change (clitoris [3]; [14]): 2.0 ° F.
Clitoral temperature effect (conclusion) (clitoris [3]; both patients): increases in clitoral temperatures
Best dose (clitoris [4]; Patient No. 1): 0.400 µg
Doses with adverse effects (clitoris [4]; Patient No. 1): 50 µg
Subjective Response (clitoris [4]; [7]): Rare tingle.
Subjective Response (clitoris [4]; [8]): Very excited.
Subjective Response (clitoris [4]; [9]): Very excited, 9/10.
Subjective Response (clitoris [4]; [10]): Excited, 7/10.
Subjective Response (clitoris [4]; [11]): Very excited.
Subjective Response (clitoris [4]; [12]): Excited. 2/10 abdominal
Dose with subjective reports of a sexual response (clitoris [4]; Patient No. 1, triacetin solution with palmitic acid (PGDH inhibitor) and PGE2 in 10:1 weight ratio): 2 nanograms
Amount giving a sexual response (clitoris [4]; Patient No. 2): ≥ 0.050 µg
Subjective Response (clitoris [4]; [13]): Excited.

C[C@@H](N)Cc1c[nH]cn1.Cl [R-alphamethylhistamine, R-alphamethylhistamine hydrochloride]
Overall effect on temperature and sexual excitement (clitoris [3]; Patient No. 1): decreased temperature and decreased sexual excitement
Temperature Change (clitoris [3]; [15]): −0.1 ° F.
Temperature Change (clitoris [3]; [16]): −0.5 ° F.
Temperature Change (clitoris [3]; [17]): 0.1 ° F.
Subjective Response (clitoris [4]; [15]): None.
Subjective Response (clitoris [4]; [16]): Numb feeling in clitoris.
Subjective Response (clitoris [4]; [17]): Clitoral burning; 2/10;

CCCCC[C@H](O)/C=C/[C@H]1[C@H](O)CC(=O)[C@@H]1CCCCCCC(=O)O [PGE-1, 3-hydroxy-2-(3-hydroxy-1-octenyl)-5-oxocyclopentaneheptanoic acid]
solubility (Solubility in water): 80 µg/mL (≈ 226 µM)
Change in Clitoral Blood Flow (clitoral artery; 20.0 mcg in triacetin): 4 cm/s
Change in Clitoral Blood Flow, percent in brackets (clitoral artery; 20.0 mcg in triacetin): +46%
Change in Clitoral Blood Flow (clitoral artery; 50.0 mcg in triacetin): 3.5 cm/s
Change in Clitoral Blood Flow, percent in brackets (clitoral artery; 50.0 mcg in triacetin): +32%
Change in Clitoral Blood Flow (clitoral artery; 100.0 mcg in triacetin): 6.5 cm/s
Change in Clitoral Blood Flow, percent in brackets (clitoral artery; 100.0 mcg in triacetin): +33%
Change in Clitoral Blood Flow (clitoral artery; 200.0 mcg in triacetin): 11 cm/s
Change in Clitoral Blood Flow, percent in brackets (clitoral artery; 200.0 mcg in triacetin): +80%
Temperature Change (clitoris [3]; [9]): −0.6 ° F.
Temperature Change (clitoris [3]; [10]): 0.3 ° F.
Temperature Change (clitoris [3]; [18]): 0.3 ° F.
Temperature Change (clitoris [3]; [12]): 0.1 ° F.
Temperature Change (clitoris [3]; Patient No. 1, 100.0 mcg in triacetin on clitoris): 2.7 ° F.
Temperature Change (clitoris [3]; [19]): 0.4 ° F.
Clitoral temperature effect (conclusion) (clitoris [3]; Patient No. 2): did not have a temperature increase
Temperature Change (clitoris [3]; [13]): −0.35 ° F.
Temperature Change (clitoris [3]; [14]): −0.10 ° F.
Temperature Change (clitoris [3]; [20]): −0.10 ° F.
Doses giving pleasurable feelings (clitoris [4]; Patient No. 1): ≥ 20 µg
Doses with adverse effects (clitoris [4]; Patient No. 1): adverse effects at all doses
Subjective Response (clitoris [4]; [9]): Felt cold.
Subjective Response (clitoris [4]; [10]): Clitoral burning; 6/10;
Subjective Response (clitoris [4]; [18]): Clitoral burning; 4/10.
Subjective Response (clitoris [4]; [12]): Exciting. Jaw pain.
Subjective Response (clitoris [4]; [19]): Diffuse pain, flushing,
Overall effects (clitoris [4]; Patient No. 2): neither positive nor negative effects
Subjective Response (clitoris [4]; [13]): Felt drop go on. No
Subjective Response (clitoris [4]; [14]): Felt drop go on. No
Subjective Response (clitoris [4]; [20]): Felt nothing.
